Data reported in patent US20130209543A1, “ENHANCED TREATMENT REGIMENS USING MTOR INHIBITORS” (Intellikine LLC, priority 2011, published 2013).

Test: Additional study: grade 3 or greater treatment-emergent adverse events (Table 10)
Format: in vivo, human

For `CC(C)n1nc(-c2ccc3oc(N)nc3c2)c2c(N)ncnc21` [compound A], the “Anaemia, grade 3 or greater TEAE” value (Total (N = 91)) was 6 (7%), the “Aspartate aminotransferase increase, grade 3 or greater TEAE” value (“Aspartate aminotransferase increase” below) (Total (N = 91)) was 2 (2%) and the “Asthenia, grade 3 or greater TEAE” value (Total (N = 91)) was 4 (4%). For the same compound, the “Blood creatinine increase, grade 3 or greater TEAE” value (“Blood creatinine increase” for short) (Total (N = 91)) was 2 (2%), the “Deep vein thrombosis, grade 3 or greater TEAE” value (“Deep vein thrombosis” below) (Total (N = 91)) was 2 (2%) and the “Diarrhoea, grade 3 or greater TEAE” value (Total (N = 91)) was 3 (3%). The “Disease progression, grade 3 or greater TEAE” value (from here on “Disease progression”) (Total (N = 91)) was 2 (2%), the “Fatigue, grade 3 or greater TEAE” value (Total (N = 91)) was 3 (3%) and the “Gamma-glutamyltransferase increase, grade 3 or greater TEAE” value (from here on “Gamma-glutamyltransferase increase”) (Total (N = 91)) was 3 (3%). For the same compound, the “Hyperglycaemia, grade 3 or greater TEAE” value (Total (N = 91)) was 9 (10%), the “Hypokalaemia, grade 3 or greater TEAE” value (Total (N = 91)) was 3 (3%) and the “Hyponatraemia, grade 3 or greater TEAE” value (Total (N = 91)) was 2 (2%). The “Hypophsphataemia, grade 3 or greater TEAE” value (Total (N = 91)) was 5 (5%), the “Lymphopenia, grade 3 or greater TEAE” value (Total (N = 91)) was 6 (7%) and the “Mucosal Inflammation, grade 3 or greater TEAE” value (“Mucosal Inflammation” for short) (Total (N = 91)) was 7 (8%). For the same compound, the “Muscular weakness, grade 3 or greater TEAE” value (shortened to “Muscular weakness”) (Total (N = 91)) was 2 (2%), the “Nausea, grade 3 or greater TEAE” value (Total (N = 91)) was 2 (2%) and the “Neutropenia, grade 3 or greater TEAE” value (Total (N = 91)) was 2 (2%). For the same compound, the “Pruritus, grade 3 or greater TEAE” value (Total (N = 91)) was 3 (3%), the “Rash, grade 3 or greater TEAE” value (Total (N = 91)) was 9 (10%) and the “Thrombocytopenia, grade 3 or greater TEAE” value (Total (N = 91)) was 2 (2%). For the same compound, the “Vomiting, grade 3 or greater TEAE” value (Total (N = 91)) was 3 (3%), the “Anaemia, grade 3 or greater TEAE” value (Total QD Dosing (N = 29)) was 1 (3%) and the “Aspartate aminotransferase increase” value (Total QD Dosing (N = 29)) was 0 (0%). The “Asthenia, grade 3 or greater TEAE” value (Total QD Dosing (N = 29)) was 1 (3%), the “Blood creatinine increase” value (Total QD Dosing (N = 29)) was 0 (0%) and the “Deep vein thrombosis” value (Total QD Dosing (N = 29)) was 0 (0%). For the same compound, the “Diarrhoea, grade 3 or greater TEAE” value (Total QD Dosing (N = 29)) was 1 (3%), the “Disease progression” value (Total QD Dosing (N = 29)) was 0 (0%) and the “Fatigue, grade 3 or greater TEAE” value (Total QD Dosing (N = 29)) was 0 (0%). For the same compound, the “Gamma-glutamyltransferase increase” value (Total QD Dosing (N = 29)) was 0 (0%), the “Hyperglycaemia, grade 3 or greater TEAE” value (Total QD Dosing (N = 29)) was 4 (14%) and the “Hypokalaemia, grade 3 or greater TEAE” value (Total QD Dosing (N = 29)) was 2 (7%). For the same compound, the “Hyponatraemia, grade 3 or greater TEAE” value (Total QD Dosing (N = 29)) was 2 (7%), the “Hypophsphataemia, grade 3 or greater TEAE” value (Total QD Dosing (N = 29)) was 0 (0%) and the “Lymphopenia, grade 3 or greater TEAE” value (Total QD Dosing (N = 29)) was 2 (7%). For the same compound, the “Mucosal Inflammation” value (Total QD Dosing (N = 29)) was 0 (0%), the “Muscular weakness” value (Total QD Dosing (N = 29)) was 0 (0%) and the “Nausea, grade 3 or greater TEAE” value (Total QD Dosing (N = 29)) was 0 (0%). The “Neutropenia, grade 3 or greater TEAE” value (Total QD Dosing (N = 29)) was 0 (0%), the “Pruritus, grade 3 or greater TEAE” value (Total QD Dosing (N = 29)) was 2 (7%) and the “Rash, grade 3 or greater TEAE” value (Total QD Dosing (N = 29)) was 7 (24%). For the same compound, the “Thrombocytopenia, grade 3 or greater TEAE” value (Total QD Dosing (N = 29)) was 2 (7%), the “Vomiting, grade 3 or greater TEAE” value (Total QD Dosing (N = 29)) was 0 (0%) and the “Anaemia, grade 3 or greater TEAE” value (Total QDx3d QW (N = 25)) was 2 (8%). The “Aspartate aminotransferase increase” value (Total QDx3d QW (N = 25)) was 0 (0%), the “Asthenia, grade 3 or greater TEAE” value (Total QDx3d QW (N = 25)) was 1 (4%) and the “Blood creatinine increase” value (Total QDx3d QW (N = 25)) was 2 (8%). For the same compound, the “Deep vein thrombosis” value (Total QDx3d QW (N = 25)) was 1 (4%), the “Diarrhoea, grade 3 or greater TEAE” value (Total QDx3d QW (N = 25)) was 1 (4%) and the “Disease progression” value (Total QDx3d QW (N = 25)) was 0 (0%). For the same compound, the “Fatigue, grade 3 or greater TEAE” value (Total QDx3d QW (N = 25)) was 0 (0%), the “Gamma-glutamyltransferase increase” value (Total QDx3d QW (N = 25)) was 1 (4%) and the “Hyperglycaemia, grade 3 or greater TEAE” value (Total QDx3d QW (N = 25)) was 4 (16%). For the same compound, the “Hypokalaemia, grade 3 or greater TEAE” value (Total QDx3d QW (N = 25)) was 0 (0%), the “Hyponatraemia, grade 3 or greater TEAE” value (Total QDx3d QW (N = 25)) was 0 (0%) and the “Hypophsphataemia, grade 3 or greater TEAE” value (Total QDx3d QW (N = 25)) was 3 (12%). For the same compound, the “Lymphopenia, grade 3 or greater TEAE” value (Total QDx3d QW (N = 25)) was 2 (8%), the “Mucosal Inflammation” value (Total QDx3d QW (N = 25)) was 4 (16%) and the “Muscular weakness” value (Total QDx3d QW (N = 25)) was 1 (4%). For the same compound, the “Nausea, grade 3 or greater TEAE” value (Total QDx3d QW (N = 25)) was 1 (4%), the “Neutropenia, grade 3 or greater TEAE” value (Total QDx3d QW (N = 25)) was 0 (0%) and the “Pruritus, grade 3 or greater TEAE” value (Total QDx3d QW (N = 25)) was 1 (4%). For the same compound, the “Rash, grade 3 or greater TEAE” value (Total QDx3d QW (N = 25)) was 1 (4%), the “Thrombocytopenia, grade 3 or greater TEAE” value (Total QDx3d QW (N = 25)) was 0 (0%) and the “Vomiting, grade 3 or greater TEAE” value (Total QDx3d QW (N = 25)) was 1 (4%). For the same compound, the “Anaemia, grade 3 or greater TEAE” value (Total QDx5d QW (N = 15)) was 1 (7%), the “Aspartate aminotransferase increase” value (Total QDx5d QW (N = 15)) was 1 (7%) and the “Asthenia, grade 3 or greater TEAE” value (Total QDx5d QW (N = 15)) was 1 (7%). For the same compound, the “Blood creatinine increase” value (Total QDx5d QW (N = 15)) was 0 (0%), the “Deep vein thrombosis” value (Total QDx5d QW (N = 15)) was 0 (0%) and the “Diarrhoea, grade 3 or greater TEAE” value (Total QDx5d QW (N = 15)) was 0 (0%). For the same compound, the “Disease progression” value (Total QDx5d QW (N = 15)) was 0 (0%), the “Fatigue, grade 3 or greater TEAE” value (Total QDx5d QW (N = 15)) was 2 (13%) and the “Gamma-glutamyltransferase increase” value (Total QDx5d QW (N = 15)) was 1 (7%). For the same compound, the “Hyperglycaemia, grade 3 or greater TEAE” value (Total QDx5d QW (N = 15)) was 1 (7%), the “Hypokalaemia, grade 3 or greater TEAE” value (Total QDx5d QW (N = 15)) was 0 (0%) and the “Hyponatraemia, grade 3 or greater TEAE” value (Total QDx5d QW (N = 15)) was 0 (0%). The “Hypophsphataemia, grade 3 or greater TEAE” value (Total QDx5d QW (N = 15)) was 2 (13%), the “Lymphopenia, grade 3 or greater TEAE” value (Total QDx5d QW (N = 15)) was 1 (7%) and the “Mucosal Inflammation” value (Total QDx5d QW (N = 15)) was 3 (20%). For the same compound, the “Muscular weakness” value (Total QDx5d QW (N = 15)) was 0 (0%), the “Nausea, grade 3 or greater TEAE” value (Total QDx5d QW (N = 15)) was 1 (7%) and the “Neutropenia, grade 3 or greater TEAE” value (Total QDx5d QW (N = 15)) was 1 (7%). For the same compound, the “Pruritus, grade 3 or greater TEAE” value (Total QDx5d QW (N = 15)) was 0 (0%), the “Rash, grade 3 or greater TEAE” value (Total QDx5d QW (N = 15)) was 1 (7%) and the “Thrombocytopenia, grade 3 or greater TEAE” value (Total QDx5d QW (N = 15)) was 0 (0%). The “Vomiting, grade 3 or greater TEAE” value (Total QDx5d QW (N = 15)) was 1 (7%), the “Anaemia, grade 3 or greater TEAE” value (Total QW Dosing (N = 22)) was 2 (9%) and the “Aspartate aminotransferase increase” value (Total QW Dosing (N = 22)) was 1 (5%). For the same compound, the “Asthenia, grade 3 or greater TEAE” value (Total QW Dosing (N = 22)) was 1 (5%), the “Blood creatinine increase” value (Total QW Dosing (N = 22)) was 0 (0%) and the “Deep vein thrombosis” value (Total QW Dosing (N = 22)) was 1 (5%). For the same compound, the “Diarrhoea, grade 3 or greater TEAE” value (Total QW Dosing (N = 22)) was 1 (5%), the “Disease progression” value (Total QW Dosing (N = 22)) was 2 (9%) and the “Fatigue, grade 3 or greater TEAE” value (Total QW Dosing (N = 22)) was 1 (5%). For the same compound, the “Gamma-glutamyltransferase increase” value (Total QW Dosing (N = 22)) was 1 (5%), the “Hyperglycaemia, grade 3 or greater TEAE” value (Total QW Dosing (N = 22)) was 0 (0%) and the “Hypokalaemia, grade 3 or greater TEAE” value (Total QW Dosing (N = 22)) was 1 (5%). The “Hyponatraemia, grade 3 or greater TEAE” value (Total QW Dosing (N = 22)) was 0 (0%), the “Hypophsphataemia, grade 3 or greater TEAE” value (Total QW Dosing (N = 22)) was 0 (0%) and the “Lymphopenia, grade 3 or greater TEAE” value (Total QW Dosing (N = 22)) was 1 (5%). The “Mucosal Inflammation” value (Total QW Dosing (N = 22)) was 0 (0%), the “Muscular weakness” value (Total QW Dosing (N = 22)) was 1 (5%) and the “Nausea, grade 3 or greater TEAE” value (Total QW Dosing (N = 22)) was 0 (0%). The “Neutropenia, grade 3 or greater TEAE” value (Total QW Dosing (N = 22)) was 1 (5%), the “Pruritus, grade 3 or greater TEAE” value (Total QW Dosing (N = 22)) was 0 (0%) and the “Rash, grade 3 or greater TEAE” value (Total QW Dosing (N = 22)) was 0 (0%). The “Thrombocytopenia, grade 3 or greater TEAE” value (Total QW Dosing (N = 22)) was 0 (0%) and the “Vomiting, grade 3 or greater TEAE” value (Total QW Dosing (N = 22)) was 1 (5%).
